Each block holds one compound with its values, some of them ahead of it. Activity calls are given as the source filed them. No cut-off for these calls is given here.
What was measured:
[1] = molecular target: T1, Lysine-specific demethylase 5A (Homo sapiens, UniProt P29375); assay: Inhibition of full length human KDM5A using biotinylated H2NART(KMe3)QTARKSTGGKAPRKQLA-NTPEG-biotin as substrate after 30 to 40 mins using 1 uM of 2-OG as co-substrate by TR-FRET assay
[2] = molecular target: T1, Lysine-specific demethylase 5A; assay: Inhibition of full length human KDM5A using biotinylated H2NART(KMe3)QTARKSTGGKAPRKQLA-NTPEG-biotin as substrate after 30 to 40 mins using 20 uM of 2-OG as co-substrate by TR-FRET assay
[3] = Dissociation constant, pKa of the compound; format: physicochemical
[4] = molecular target: T1, Lysine-specific demethylase 5A; assay: Inhibition of KDM5A in human PC9 cells assessed as increase in H3K4me3 levels upto 30 uM after 4 days by HTRF assay; format: cell-based
[5] = Apparent permeability from apical to basolateral side in MDCK cells; format: ADME, cell-based, Canis lupus familiaris; settings: dog
[6] = Plasma protein binding in human; format: ADME, cell-free; settings: read-out: PPB (converted)
[7] = Hepatic clearance in human liver microsomes; format: ADME, Microsome
[8] = molecular target: Lysine-specific demethylase 5B (Homo sapiens, UniProt Q9UGL1); assay: Inhibition of full length human KDM5B using biotinylated H2NART(KMe3)QTARKSTGGKAPRKQLA-NTPEG-biotin as substrate after 30 to 40 mins using 2 uM of 2-OG as co-substrate by TR-FRET assay
[9] = molecular target: Lysine-specific demethylase 5C (Homo sapiens, UniProt P41229); assay: Inhibition of full length human KDM5C using biotinylated H2NART(KMe3)QTARKSTGGKAPRKQLA-NTPEG-biotin as substrate after 30 to 40 mins using 1 uM of 2-OG as co-substrate by TR-FRET assay
[10] = molecular target: T2, Lysine-specific demethylase 4C (Homo sapiens, UniProt Q9H3R0); assay: Inhibition of full length human KDM4C using biotinylated H2N-ARTKQTAR(KMe3)STGGKAPRKQLA-NTPEGBiot as substrate after 30 mins using 3 uM of 2-OG as co-substrate by TR-FRET assay
T2 sequence (Q9H3R0 whole entry): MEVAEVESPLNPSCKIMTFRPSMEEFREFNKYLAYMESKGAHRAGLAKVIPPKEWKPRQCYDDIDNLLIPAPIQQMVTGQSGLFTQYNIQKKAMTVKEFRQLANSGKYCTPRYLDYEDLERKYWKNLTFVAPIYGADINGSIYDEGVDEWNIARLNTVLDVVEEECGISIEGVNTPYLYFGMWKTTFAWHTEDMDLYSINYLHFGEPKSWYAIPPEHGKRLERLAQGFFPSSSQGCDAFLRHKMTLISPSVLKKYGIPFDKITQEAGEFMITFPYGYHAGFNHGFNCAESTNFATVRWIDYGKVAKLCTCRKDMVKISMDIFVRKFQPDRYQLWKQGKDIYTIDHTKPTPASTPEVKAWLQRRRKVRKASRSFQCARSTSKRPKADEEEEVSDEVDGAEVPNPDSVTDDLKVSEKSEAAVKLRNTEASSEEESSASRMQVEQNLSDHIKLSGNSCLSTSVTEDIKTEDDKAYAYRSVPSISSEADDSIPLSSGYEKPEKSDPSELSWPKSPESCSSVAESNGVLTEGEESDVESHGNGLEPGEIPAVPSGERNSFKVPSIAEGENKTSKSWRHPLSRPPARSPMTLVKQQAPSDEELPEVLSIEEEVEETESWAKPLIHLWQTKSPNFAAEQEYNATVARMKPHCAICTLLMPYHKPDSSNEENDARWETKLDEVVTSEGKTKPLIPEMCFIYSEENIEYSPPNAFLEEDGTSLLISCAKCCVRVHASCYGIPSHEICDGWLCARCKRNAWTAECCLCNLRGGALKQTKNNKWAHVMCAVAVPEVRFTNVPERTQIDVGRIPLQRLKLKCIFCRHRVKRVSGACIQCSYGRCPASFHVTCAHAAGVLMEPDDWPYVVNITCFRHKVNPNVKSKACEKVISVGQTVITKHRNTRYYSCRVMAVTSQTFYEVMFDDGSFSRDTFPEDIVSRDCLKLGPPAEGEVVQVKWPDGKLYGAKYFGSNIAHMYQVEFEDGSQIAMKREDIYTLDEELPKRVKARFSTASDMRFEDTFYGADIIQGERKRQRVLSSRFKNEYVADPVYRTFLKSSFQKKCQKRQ

[11] = molecular target: T3, Lysine-specific demethylase 2B (Homo sapiens, UniProt Q8NHM5); assay: Inhibition of full length human KDM2B using biotinylated H2N-RKSAPATGGV(KMe2)KPHRYRPGTV-NTPEGBiot as substrate after 2 hrs using 0.3 uM of 2-OG as co-substrate by TR-FRET assay
T3 sequence (Q8NHM5 whole entry): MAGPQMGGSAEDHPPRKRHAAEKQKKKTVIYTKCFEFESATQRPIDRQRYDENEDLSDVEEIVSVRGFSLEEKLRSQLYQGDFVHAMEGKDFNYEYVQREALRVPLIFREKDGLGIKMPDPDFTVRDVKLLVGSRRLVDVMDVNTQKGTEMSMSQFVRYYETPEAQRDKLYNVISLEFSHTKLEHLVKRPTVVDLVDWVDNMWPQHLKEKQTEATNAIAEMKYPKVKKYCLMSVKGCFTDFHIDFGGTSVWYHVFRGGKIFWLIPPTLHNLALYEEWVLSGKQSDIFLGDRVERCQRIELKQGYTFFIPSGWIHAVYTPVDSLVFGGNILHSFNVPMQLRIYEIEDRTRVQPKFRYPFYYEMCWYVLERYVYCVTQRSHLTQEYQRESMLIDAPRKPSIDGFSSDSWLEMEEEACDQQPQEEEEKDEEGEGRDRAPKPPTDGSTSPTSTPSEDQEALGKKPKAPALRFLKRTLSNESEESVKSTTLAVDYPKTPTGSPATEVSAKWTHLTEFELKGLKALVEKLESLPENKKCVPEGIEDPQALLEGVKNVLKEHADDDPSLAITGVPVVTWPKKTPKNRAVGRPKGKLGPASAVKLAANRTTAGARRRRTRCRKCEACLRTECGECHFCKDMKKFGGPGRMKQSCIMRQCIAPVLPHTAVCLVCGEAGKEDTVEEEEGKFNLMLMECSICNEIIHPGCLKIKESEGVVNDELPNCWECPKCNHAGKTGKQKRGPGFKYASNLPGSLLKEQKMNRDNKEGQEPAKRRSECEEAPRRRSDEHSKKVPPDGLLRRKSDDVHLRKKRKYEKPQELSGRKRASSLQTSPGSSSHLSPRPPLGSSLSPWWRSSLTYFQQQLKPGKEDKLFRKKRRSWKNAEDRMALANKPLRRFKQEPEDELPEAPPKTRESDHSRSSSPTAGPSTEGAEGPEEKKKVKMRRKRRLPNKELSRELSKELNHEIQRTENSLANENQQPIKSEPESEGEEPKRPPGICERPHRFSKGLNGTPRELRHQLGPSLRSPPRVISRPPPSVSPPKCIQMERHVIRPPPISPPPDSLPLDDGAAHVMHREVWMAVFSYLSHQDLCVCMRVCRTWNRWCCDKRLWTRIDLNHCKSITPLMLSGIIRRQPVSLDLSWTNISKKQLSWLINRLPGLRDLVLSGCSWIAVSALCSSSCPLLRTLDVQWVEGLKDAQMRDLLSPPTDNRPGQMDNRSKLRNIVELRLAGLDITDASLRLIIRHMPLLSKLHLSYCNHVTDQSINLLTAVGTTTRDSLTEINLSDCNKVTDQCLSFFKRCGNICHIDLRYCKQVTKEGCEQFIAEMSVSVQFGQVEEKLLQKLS

[12] = Competitive inhibition of KDM5 (unknown origin) in presence of 2-OG; parameters: species or system Homo sapiens
Homo sapiens [13] = organism: Homo sapiens; assay: Selectivity ratio of IC50 for full length human KDM4C to IC50 for full length human KDM5A
Homo sapiens [14] = organism: Homo sapiens; assay: Selectivity ratio of IC50 for full length human KDM2B to IC50 for full length human KDM5A
[15] = molecular target: T1, Lysine-specific demethylase 5A; assay: Ratio of IC50 for full length human KDM5A using biotinylated H2NART(KMe3)QTARKSTGGKAPRKQLA-NTPEG-biotin as substrate and 10 uM of 2-OG as co-substrate to IC50 for full length human KDM5A using biotinylated H2NART(KMe3)QTARKSTGGKAPRKQLA-NTPEG-biotin as substrate and 1 uM of 2-OG as co-substrate

T1 sequence (P29375 whole entry): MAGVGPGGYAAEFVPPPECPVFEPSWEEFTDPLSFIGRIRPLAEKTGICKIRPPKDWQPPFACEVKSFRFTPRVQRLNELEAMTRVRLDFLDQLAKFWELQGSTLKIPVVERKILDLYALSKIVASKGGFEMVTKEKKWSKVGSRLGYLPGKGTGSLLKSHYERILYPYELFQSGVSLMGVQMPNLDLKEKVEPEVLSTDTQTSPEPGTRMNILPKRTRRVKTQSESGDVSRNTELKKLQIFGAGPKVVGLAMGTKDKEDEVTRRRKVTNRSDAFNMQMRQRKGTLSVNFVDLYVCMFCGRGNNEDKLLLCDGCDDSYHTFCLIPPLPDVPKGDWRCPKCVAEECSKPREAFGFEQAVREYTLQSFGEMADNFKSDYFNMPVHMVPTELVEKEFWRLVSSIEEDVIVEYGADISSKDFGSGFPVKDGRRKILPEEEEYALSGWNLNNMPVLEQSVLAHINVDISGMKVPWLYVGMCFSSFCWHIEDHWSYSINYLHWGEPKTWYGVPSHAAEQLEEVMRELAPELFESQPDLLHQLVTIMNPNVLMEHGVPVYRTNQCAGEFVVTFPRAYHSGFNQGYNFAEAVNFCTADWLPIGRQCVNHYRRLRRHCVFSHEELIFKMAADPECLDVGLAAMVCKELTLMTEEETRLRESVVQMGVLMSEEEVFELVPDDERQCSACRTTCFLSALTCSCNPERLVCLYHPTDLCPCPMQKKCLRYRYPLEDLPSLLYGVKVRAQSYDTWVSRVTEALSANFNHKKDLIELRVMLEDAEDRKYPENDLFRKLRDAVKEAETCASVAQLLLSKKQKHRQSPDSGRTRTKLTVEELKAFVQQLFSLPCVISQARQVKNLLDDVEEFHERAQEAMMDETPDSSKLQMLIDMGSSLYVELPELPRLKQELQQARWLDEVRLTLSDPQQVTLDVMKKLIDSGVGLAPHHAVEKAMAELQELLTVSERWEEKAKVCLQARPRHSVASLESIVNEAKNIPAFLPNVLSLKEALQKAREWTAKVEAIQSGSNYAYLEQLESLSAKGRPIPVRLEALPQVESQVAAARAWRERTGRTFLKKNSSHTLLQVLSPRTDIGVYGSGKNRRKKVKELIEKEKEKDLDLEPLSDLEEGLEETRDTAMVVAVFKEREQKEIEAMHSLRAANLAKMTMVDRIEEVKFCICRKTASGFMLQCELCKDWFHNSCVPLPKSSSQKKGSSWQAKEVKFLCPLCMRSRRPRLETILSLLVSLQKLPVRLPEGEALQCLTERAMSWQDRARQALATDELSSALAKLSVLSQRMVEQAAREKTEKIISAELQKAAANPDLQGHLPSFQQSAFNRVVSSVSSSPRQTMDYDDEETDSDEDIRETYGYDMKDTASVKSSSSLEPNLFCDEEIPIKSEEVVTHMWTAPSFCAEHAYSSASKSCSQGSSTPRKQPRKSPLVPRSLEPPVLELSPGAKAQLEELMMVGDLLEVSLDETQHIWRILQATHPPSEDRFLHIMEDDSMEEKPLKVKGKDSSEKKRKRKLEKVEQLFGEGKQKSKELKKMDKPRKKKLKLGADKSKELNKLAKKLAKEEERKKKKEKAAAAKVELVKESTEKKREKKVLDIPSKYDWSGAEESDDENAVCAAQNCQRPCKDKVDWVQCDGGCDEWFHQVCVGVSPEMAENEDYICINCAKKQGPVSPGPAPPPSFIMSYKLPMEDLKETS
Sequence of Lysine-specific demethylase 5C (P41229 whole entry): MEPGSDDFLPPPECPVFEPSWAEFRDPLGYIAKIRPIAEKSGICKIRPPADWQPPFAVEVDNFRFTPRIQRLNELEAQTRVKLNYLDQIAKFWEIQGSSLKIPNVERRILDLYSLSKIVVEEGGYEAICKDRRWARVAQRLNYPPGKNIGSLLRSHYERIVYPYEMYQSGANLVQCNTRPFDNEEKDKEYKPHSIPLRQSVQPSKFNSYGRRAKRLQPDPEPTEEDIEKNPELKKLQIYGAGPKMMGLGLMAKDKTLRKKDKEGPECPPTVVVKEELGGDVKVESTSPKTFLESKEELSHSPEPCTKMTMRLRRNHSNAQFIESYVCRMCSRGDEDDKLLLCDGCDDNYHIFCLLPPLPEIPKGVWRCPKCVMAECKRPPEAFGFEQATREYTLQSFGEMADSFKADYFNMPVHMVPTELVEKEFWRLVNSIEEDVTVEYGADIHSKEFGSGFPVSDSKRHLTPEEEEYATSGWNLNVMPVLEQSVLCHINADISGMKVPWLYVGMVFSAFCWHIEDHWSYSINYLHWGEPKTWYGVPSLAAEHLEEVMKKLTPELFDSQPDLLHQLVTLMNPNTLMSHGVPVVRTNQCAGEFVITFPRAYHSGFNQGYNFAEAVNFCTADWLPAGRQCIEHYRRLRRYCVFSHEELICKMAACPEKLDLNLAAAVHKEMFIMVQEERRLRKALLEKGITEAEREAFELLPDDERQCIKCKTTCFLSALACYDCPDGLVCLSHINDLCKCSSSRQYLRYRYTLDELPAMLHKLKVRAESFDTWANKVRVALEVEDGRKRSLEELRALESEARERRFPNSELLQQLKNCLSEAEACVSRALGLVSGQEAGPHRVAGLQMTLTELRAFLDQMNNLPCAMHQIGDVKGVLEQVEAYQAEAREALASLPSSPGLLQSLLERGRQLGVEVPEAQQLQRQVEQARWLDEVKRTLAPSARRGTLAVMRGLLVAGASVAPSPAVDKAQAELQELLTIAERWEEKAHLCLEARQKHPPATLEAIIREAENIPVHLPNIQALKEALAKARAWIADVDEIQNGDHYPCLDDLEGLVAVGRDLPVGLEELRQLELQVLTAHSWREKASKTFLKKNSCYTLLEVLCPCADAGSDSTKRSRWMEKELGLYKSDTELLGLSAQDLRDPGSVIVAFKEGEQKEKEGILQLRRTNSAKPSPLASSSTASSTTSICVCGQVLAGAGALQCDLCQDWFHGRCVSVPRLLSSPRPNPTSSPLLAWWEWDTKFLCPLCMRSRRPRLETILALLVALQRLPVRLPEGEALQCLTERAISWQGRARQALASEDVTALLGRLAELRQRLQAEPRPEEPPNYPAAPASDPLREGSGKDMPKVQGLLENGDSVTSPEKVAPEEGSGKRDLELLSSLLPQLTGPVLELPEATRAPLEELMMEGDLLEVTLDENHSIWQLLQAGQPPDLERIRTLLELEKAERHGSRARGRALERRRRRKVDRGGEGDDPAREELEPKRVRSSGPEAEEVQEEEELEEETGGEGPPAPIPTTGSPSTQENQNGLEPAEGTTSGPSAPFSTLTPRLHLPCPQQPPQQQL
Sequence of Lysine-specific demethylase 5B (Q9UGL1 whole entry): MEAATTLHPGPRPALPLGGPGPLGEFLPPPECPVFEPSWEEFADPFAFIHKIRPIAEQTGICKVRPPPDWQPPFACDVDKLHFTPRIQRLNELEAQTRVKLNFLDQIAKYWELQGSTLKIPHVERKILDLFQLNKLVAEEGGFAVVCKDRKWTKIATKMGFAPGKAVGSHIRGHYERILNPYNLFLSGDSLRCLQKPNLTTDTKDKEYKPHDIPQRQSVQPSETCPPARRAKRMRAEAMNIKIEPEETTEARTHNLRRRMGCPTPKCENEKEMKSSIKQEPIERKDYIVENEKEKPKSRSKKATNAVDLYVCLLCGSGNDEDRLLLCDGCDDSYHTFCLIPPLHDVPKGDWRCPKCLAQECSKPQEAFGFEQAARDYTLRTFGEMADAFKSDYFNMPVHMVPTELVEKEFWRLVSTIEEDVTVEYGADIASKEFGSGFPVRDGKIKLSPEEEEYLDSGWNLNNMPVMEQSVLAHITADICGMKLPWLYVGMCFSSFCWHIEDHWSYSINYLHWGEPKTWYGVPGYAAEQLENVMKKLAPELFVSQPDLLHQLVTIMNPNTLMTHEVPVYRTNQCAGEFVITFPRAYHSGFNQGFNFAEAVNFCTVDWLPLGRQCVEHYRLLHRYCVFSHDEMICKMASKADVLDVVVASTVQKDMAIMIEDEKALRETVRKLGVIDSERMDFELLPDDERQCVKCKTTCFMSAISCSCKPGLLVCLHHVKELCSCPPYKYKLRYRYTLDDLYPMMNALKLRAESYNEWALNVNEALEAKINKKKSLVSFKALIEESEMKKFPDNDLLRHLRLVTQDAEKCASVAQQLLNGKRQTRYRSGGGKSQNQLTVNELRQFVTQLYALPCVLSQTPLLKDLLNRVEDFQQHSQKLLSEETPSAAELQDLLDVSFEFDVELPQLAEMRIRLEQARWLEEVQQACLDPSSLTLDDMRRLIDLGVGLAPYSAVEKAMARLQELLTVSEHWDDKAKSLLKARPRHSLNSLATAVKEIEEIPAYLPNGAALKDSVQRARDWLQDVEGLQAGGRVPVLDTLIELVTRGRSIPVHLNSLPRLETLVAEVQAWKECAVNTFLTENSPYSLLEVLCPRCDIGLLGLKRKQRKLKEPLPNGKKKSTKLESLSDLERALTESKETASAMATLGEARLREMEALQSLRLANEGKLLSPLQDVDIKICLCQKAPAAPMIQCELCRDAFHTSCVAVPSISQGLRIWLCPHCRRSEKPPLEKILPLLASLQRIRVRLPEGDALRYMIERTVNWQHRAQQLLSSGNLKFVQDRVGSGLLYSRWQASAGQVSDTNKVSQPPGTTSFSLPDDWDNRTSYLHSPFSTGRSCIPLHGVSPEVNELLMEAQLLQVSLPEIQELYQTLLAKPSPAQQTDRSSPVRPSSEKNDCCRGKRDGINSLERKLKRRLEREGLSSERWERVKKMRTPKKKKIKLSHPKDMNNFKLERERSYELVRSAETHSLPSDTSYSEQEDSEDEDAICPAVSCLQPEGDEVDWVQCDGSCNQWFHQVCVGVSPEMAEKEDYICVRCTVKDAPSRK

SMILES: N#Cc1c(O)c2ccccc2[nH]c1=O
- IC50 [1]: > 25000 nM

SMILES: CCc1c(O)c2ccncc2[nH]c1=O
- IC50 [1]: 230 nM
- IC50 [2]: 2100 nM

- pKa [3]: 6.4
- inhibition [4]: inactive
- Papp A→B [5]: 15.8 ×10⁻⁶ cm/s
- fraction unbound [6]: 0.3
- CLhep predicted [7]: 11.5 mL/min/kg
SMILES: CCNC(=O)c1c(O)c2ccncc2[nH]c1=O
- IC50 [1]: 50 nM

SMILES: CCOC(=O)c1c(O)nc2ccccc2c1O
- IC50 [1]: > 25000 nM

- pKa [3]: 3.5
- IC50 [10]: > 25000 nM
- IC50 [11]: > 25 µM
- inhibition [4]: inactive
SMILES: N#Cc1c(O)c2ccncc2[nH]c1=O
- IC50 [1]: 25 nM
- IC50 [8]: 70 nM
- IC50 [9]: 170 nM

SMILES: CCc1c(O)c2ccncc2n(CC)c1=O
- IC50 [1]: 3800 nM

SMILES: O=c1cc(O)c2ccncc2[nH]1
- IC50 [1]: 6700 nM

SMILES: O=C(NCc1ccccc1)c1c(O)c2ccncc2[nH]c1=O
- IC50 [1]: > 25000 nM

- IC50 [12]: 10 nM
SMILES: CC(C)c1c(-c2ccccc2)[nH]c2c(C#N)cnn2c1=O

SMILES: CC(C)NC(=O)c1c(O)c2ccncc2[nH]c1=O
- IC50 [1]: 400 nM

SMILES: CNC(=O)c1c(O)c2ccncc2[nH]c1=O
- IC50 [1]: 70 nM

SMILES: CN(C)C(=O)c1c(O)c2ccncc2[nH]c1=O
- IC50 [1]: 5300 nM

SMILES: CCN(C)C(=O)c1c(O)c2ccncc2[nH]c1=O
- IC50 [1]: 700 nM

SMILES: O=C(c1c(O)c2ccncc2[nH]c1=O)N1CCCC1
- IC50 [1]: > 25000 nM

- pKa [3]: 4.6
- IC50 [10]: 1900 nM
- IC50 [11]: > 25 µM
- Ratio IC50 (Homo sapiens [13]): 12
- Ratio IC50 (Homo sapiens [14]): > 150
SMILES: O=c1[nH]c(C(F)(F)F)nc2cnccc12
- IC50 [1]: 160 nM
- Ratio IC50 [15]: 9

SMILES: CCOC(=O)c1c(O)c2cccnc2[nH]c1=O
- IC50 [1]: > 25000 nM

— ChEMBL document CHEMBL4431331, “Design and evaluation of 1,7-naphthyridones as novel KDM5 inhibitors” (Bioorg Med Chem Lett, 2016)
